In paper PMC4774972, “Activity and Predicted Nephrotoxicity of Synthetic Antibiotics Based on Polymyxin B” (Journal of Medicinal Chemistry, 2016):
Bridge positions count the residues as written; N and C are the ends. Square brackets hold non-standard residues; d marks the D form. Peptide text beside a SMILES is read from it. * marks the point of attachment. ξ: configuration not given here. ξGly(octyl) = CCCCCCCCC(N)C(=O)O; dDab = NCC[C@@H](N)C(=O)O; Octanoyl = CCCCCCCC(=O)*; Dab = NCC[C@H](N)C(=O)O

Columns and labels:
A. baumannii ATCC 19606 [1] = assay type: cell-based, Acinetobacter baumannii; conditions: ATCC 19606, 18 h
Protocol: (§1) Bacteria were either obtained from American Type Culture Collection (ATCC; Manassas, VA, USA) or independent academic clinical isolate collections, as listed in Table S2. Bacteria were cultured in nutrient broth (NB; Bacto Laboratories, catalog no. 234000) or Muller Hinton broth (MHB; Bacto Laboratories, catalog no. 211443) at 37 °C overnight with shaking (∼180 rpm). A sample of each culture was then diluted 50-fold in fresh MHB and incubated at 37 °C for 1.5–3 h with shaking (∼180 rpm). Compound stock solutions were prepared as 0.64 or 2.56 mg/mL in water. The compounds, at twice the final desired concentration, were serially diluted 2-fold across the wells of 96-well plates (Polystyrene, Corning, catalogue No. 3370). Mid log phase bacterial cultures (after 1.5–3 h incubation) were diluted to a final concentration of 5 × 10^5 colony forming units (CFU)/mL, and 50 μL was added to each well giving a final compound concentration range of 32 μg/mL to 0.015 μg/mL (128–0.06 μg/mL for colistin and polymyxin B against the polymyxin resistant clinical isolates). MICs were determined visually after 18 h of incubation at 37 °C, with the MIC defined as the lowest compound concentration at which no bacterial growth was visible.
(§2) Table S2. Bacterial strains used for Minimum Inhibitory Concentration (MIC) […]
(§3) Organism Strain Strain description Strain Source
(§4) Escherichia coli ATCC 25922 FDA strain Seattle 1946 ATCC
(§5) Klebsiella pneumoniae ATCC 13883 Control strain ATCC
(§6) Klebsiella pneumoniae ATCC 700603 Multi-drug resistant ATCC
(§7) Klebsiella pneumoniae BAA-2146 Metallo-beta-lactamase- ATCC
(§8) Acinetobacter baumannii ATCC 19606 Type strain ATCC
(§9) Pseudomonas aeruginosa ATCC 27853 Type strain ATCC
(§10) Pseudomonas aeruginosa FADDI-PA070 Clinical isolate, Nation and Li labs, polymyxin resistant Monash University
(§11) Clinical isolate, Wang Hengzhuang, Pseudomonas aeruginosa PA9704 polymyxin resistant University Hospital of […]
(§12) Ptyela Clinical isolate, Ilias Karaiskos and Acinetobacter baumannii Carbapenem & Helen Giamarellou
(§13) Clinical isolate, Medicine, Hygeia
(§14) Klebsiella pneumoniae Koprana Carbapenem, & General Hospital, […]
(§15) Clinical isolate, (Instituto Dante […]
(§16) polymyxin resistant Cardiologia, São […]

[2] = tested on: A. baumannii CI Ptyela 100734512:2, PmxR; conditions: MIC A. baumannii CI Ptyela 100734512:2, PmxR (µg/mL)
[3] = tested on: K. pneumoniae CI 138-16357-20362, PmxR; conditions: MIC K. pneumoniae CI 138-16357-20362, PmxR (µg/mL)
[4] = tested on: K. pneumoniae CI Koprana 100650661:1, PmxR; conditions: MIC K. pneumoniae CI Koprana 100650661:1, PmxR (µg/mL)
[5] = tested on: P. aeruginosa FADDI-PA070, PmxR; conditions: MIC P. aeruginosa FADDI-PA070, PmxR (µg/mL)
[6] = tested on: P. aeruginosa PA9704, PmxR; conditions: MIC P. aeruginosa PA9704, PmxR (µg/mL)
[7] = tested on: S. aureus ATCC 25923, MSSA; conditions: MIC S. aureus ATCC 25923, MSSA (µg/mL)
HepG2 = conditions: CC50 HepG2 (µM)
[8] = tested on: K. pneumoniae CI 138-16357-20362, PmxR; assay: microbe, parasite or virus in culture; assay type: cell-based, Klebsiella pneumoniae; conditions: carbapenem & polymyxin resistant clinical isolate; MHB, 5 × 10^5 CFU/mL, 18 h at 37 °C
[9] = tested on: K. pneumoniae CI Koprana 100650661:1, PmxR; assay: microbe, parasite or virus in culture; assay type: cell-based, Klebsiella pneumoniae; conditions: carbapenem & polymyxin resistant clinical isolate; MHB, 5 × 10^5 CFU/mL, 18 h at 37 °C
[10] = tested on: panel of predominantly G-ve bacteria
A. baumannii ATCC 19606 [11] = conditions: MIC A. baumannii ATCC 19606 (µg/mL)
E. coli ATCC 25922 [12] = conditions: MIC E. coli ATCC 25922 (µg/mL)
K. pneumoniae ATCC 13883 [13] = conditions: MIC K. pneumoniae ATCC 13883 (µg/mL)
E. coli ATCC 25922 [14] = assay: microbe, parasite or virus in culture; assay type: cell-based, Escherichia coli; conditions: ATCC 25922, 18 h
Protocol: as §1, §2, §3, §4, §5, §6, §7, §8, §9, §10, §11, §12, §13, §14, §15, §16

[15] = tested on: P. aeruginosa FADDI-PA070, PmxR; assay type: cell-based, Pseudomonas aeruginosa; conditions: polymyxin resistant clinical isolate; MHB, 5 × 10^5 CFU/mL, 18 h at 37 °C
Protocol: as §1, §2, §3, §4, §5, §6, §7, §8, §9, §10, §11, §12, §13, §14, §15, §16

[16] = tested on: P. aeruginosa PA9704, PmxR; assay type: cell-based, Pseudomonas aeruginosa; conditions: polymyxin resistant clinical isolate; MHB, 5 × 10^5 CFU/mL, 18 h at 37 °C
Protocol: as §1, §2, §3, §4, §5, §6, §7, §8, §9, §10, §11, §12, §13, §14, §15, §16

[17] = tested on: A. baumannii CI Ptyela 100734512:2, PmxR; assay: microbe, parasite or virus in culture; assay type: cell-based, Acinetobacter baumannii; conditions: carbapenem & polymyxin resistant clinical isolate; MHB, 5 × 10^5 CFU/mL, 18 h at 37 °C
Protocol: as §1, §2, §3, §4, §5, §6, §7, §8, §9, §10, §11, §12, §13, §14, §15, §16

K. pneumoniae ATCC 13883 [18] = assay: microbe, parasite or virus in culture; assay type: cell-based, Klebsiella pneumoniae; conditions: ATCC 13883, 18 h
[19] = tested on: S. aureus ATCC 25923, MSSA; assay: microbe, parasite or virus in culture; assay type: cell-based, Staphylococcus aureus; conditions: ATCC 25923, 18 h
Protocol: as §1, §2, §3, §4, §5, §6, §7, §8, §9, §10, §11, §12, §13, §14, §15, §16

HepG2 cells = assay: Cytotoxicity assay (resazurin assay); assay type: cell-based, human; conditions: 4000 cells/well, 24 h incubation with compound, fluorescence 560/590
Protocol: Cytotoxicity to HEK293 and HepG2 cells was determined using the resazurin assay.[67],[68] […] Compounds were then added into each well. After 24 h incubation, 5 μM resazurin was added per well and incubated at 37 °C for 2 h. Fluorescence intensity was then read using a Polarstar Omega with excitation/emission 560/590. The data were then analyzed using GraphPad Prism 6 software. CC50 values were determined using GraphPad Prism 6 software (Inc. La Jolla, CA).

[20] = tested on: K. pneumoniae ATCC 700603, MDR; conditions: MIC K. pneumoniae ATCC 700603, MDR(µg/mL)
[21] = tested on: K. pneumoniae ATTC BAA-2146, NDM-1 pos; conditions: MIC K. pneumoniae ATTC BAA-2146, NDM-1 pos (µg/mL)
P. aeruginosa ATCC 27853 [22] = conditions: MIC P. aeruginosa ATCC 27853 (µg/mL)
P. aeruginosa ATCC 27853 [23] = assay: microbe, parasite or virus in culture; assay type: cell-based, Pseudomonas aeruginosa; conditions: ATCC 27853, 18 h
Protocol: as §1, §2, §3, §4, §5, §6, §7, §8, §9, §10, §11, §12, §13, §14, §15, §16

CCCCCCCCC1NC(=O)[C@@H](Cc2ccccc2)NC(=O)[C@H](CCN)NC(=O)[C@@H](NC(=O)[C@H](CCN)NC(=O)[C@@H](NC(=O)[C@H](CCN)NC(=O)CCCCCCC)[C@@H](C)O)CCNC(=O)[C@H]([C@@H](C)O)NC(=O)[C@H](CCN)NC(=O)[C@H](CCN)NC1=O (stereo partly shown) [Compound 28] (Octanoyl-[Dab]T[Dab][Dab][Dab][dF][ξGly(octyl)][Dab][Dab]T; lactam 4-C)
1(1) μg/mL: MIC A. baumannii ATCC 19606 (A. baumannii ATCC 19606 [1])

CCCCCCCC(=O)N[C@@H](CCN)C(=O)N[C@H](C(=O)N[C@@H](CCN)C(=O)N[C@H]1CCNC(=O)[C@H]([C@@H](C)O)NC(=O)[C@H](CCN)NC(=O)[C@H](CCNC(=O)[C@@H](N)CCC(=O)O)NC(=O)[C@H](CC(C)C)NC(=O)[C@@H](Cc2ccccc2)NC(=O)[C@H](CCN)NC1=O)[C@@H](C)O [Compound 23] (Octanoyl-[Dab]T[Dab][Dab][Dab][dF]L[Dab](Glu)[Dab]T; lactam 4-C)
>32 µg/mL: MIC K. pneumoniae CI 138-16357-20362, PmxR [8] | MIC K. pneumoniae CI Koprana 100650661:1, PmxR [9]
1 to 8 µg/mL: MIC for most strains [10]
> 300 µM: CC50 (HepG2)
> 32 µg/mL: MIC [2] | MIC [3] | MIC [4] | MIC [5] | MIC [6] | MIC [7]

CCCCCCCC(=O)N[C@H](CCN)C(=O)N[C@H](C(=O)NCC(=O)N[C@H]1CCNC(=O)[C@H]([C@@H](C)O)NC(=O)[C@H](CCN)NC(=O)[C@H](CCN)NC(=O)[C@H](CC(C)C)NC(=O)[C@@H](Cc2ccccc2)NC(=O)[C@H](CCN)NC1=O)[C@@H](C)O [Compound 40] (Octanoyl-[dDab]TG[Dab][Dab][dF]L[Dab][Dab]T; lactam 4-C)
> 64 µg/mL: MIC (A. baumannii ATCC 19606 [11]) | MIC [7]
>32 µg/mL: MIC E. coli ATCC 25922 (E. coli ATCC 25922 [14]) | MIC P. aeruginosa FADDI-PA070, PmxR [15] | MIC P. aeruginosa PA9704, PmxR [16] | MIC A. baumannii CI Ptyela 100734512:2, PmxR [17] | MIC K. pneumoniae ATCC 13883 (K. pneumoniae ATCC 13883 [18]) | MIC K. pneumoniae CI 138-16357-20362, PmxR [8] | MIC K. pneumoniae CI Koprana 100650661:1, PmxR [9]
> 32 µg/mL: MIC [2] | MIC (E. coli ATCC 25922 [12]) | MIC (K. pneumoniae ATCC 13883 [13]) | MIC [3] | MIC [4] | MIC [5] | MIC [6]
> 300 µM: CC50 (HepG2)
>300 µM: HepG2 - CC50 (HepG2 cells)
>64 µg/mL: MIC A. baumannii ATCC 19606 (A. baumannii ATCC 19606 [1]) | MIC S. aureus ATCC 25923, MSSA [19]

CCCCCCCC(=O)N[C@H](C(=O)NCC(=O)N[C@H]1CCNC(=O)[C@H]([C@@H](C)O)NC(=O)[C@H](CCN)NC(=O)[C@H](CCN)NC(=O)[C@H](CC(C)C)NC(=O)[C@@H](Cc2ccccc2)NC(=O)[C@H](CCN)NC1=O)[C@@H](C)O [Compound 39] (Octanoyl-TG[Dab][Dab][dF]L[Dab][Dab]T; lactam 3-C)
>32 µg/mL: MIC A. baumannii ATCC 19606 (A. baumannii ATCC 19606 [1]) | MIC P. aeruginosa FADDI-PA070, PmxR [15] | MIC P. aeruginosa PA9704, PmxR [16] | MIC A. baumannii CI Ptyela 100734512:2, PmxR [17] | MIC K. pneumoniae ATCC 13883 (K. pneumoniae ATCC 13883 [18]) | MIC K. pneumoniae CI 138-16357-20362, PmxR [8] | MIC K. pneumoniae CI Koprana 100650661:1, PmxR [9] | MIC S. aureus ATCC 25923, MSSA [19]
16 µg/mL: MIC (P. aeruginosa ATCC 27853 [22]) | MIC P. aeruginosa ATCC 27853 (P. aeruginosa ATCC 27853 [23])
> 300 µM: CC50 (HepG2)
> 32 µg/mL: MIC (A. baumannii ATCC 19606 [11]) | MIC [2] | MIC (K. pneumoniae ATCC 13883 [13]) | MIC [20] | MIC [21] | MIC [3] | MIC [4] | MIC [5] | MIC [6] | MIC [7]
>300 µM: HepG2 - CC50 (HepG2 cells)
4 µg/mL: MIC (E. coli ATCC 25922 [12]) | MIC E. coli ATCC 25922 (E. coli ATCC 25922 [14])
